The target of one assay is T1, Trypsin (Bos taurus, UniProt P00760).
T1 sequence (P00760 24-246): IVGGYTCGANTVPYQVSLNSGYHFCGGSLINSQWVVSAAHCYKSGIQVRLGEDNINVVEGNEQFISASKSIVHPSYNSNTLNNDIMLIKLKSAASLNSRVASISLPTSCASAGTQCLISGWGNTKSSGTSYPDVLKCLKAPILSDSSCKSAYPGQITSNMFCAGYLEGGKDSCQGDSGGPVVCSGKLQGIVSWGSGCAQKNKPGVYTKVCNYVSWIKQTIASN
Description: anti-trypsin activity (hydrolysis of TAME). The format is biochemical. Conditions: read-out: ID50 Trypsin. How it is done:
(§1) The anti-trypsin, anti-plasmin, anti-kallikrein and anti-thrombin activities were determined according to the method of Muramatsu et al. [M. Muramatsu, T. Onishi, S. Makino, Y. Hayashi and S. Fujii, J. of Biochem., 58, 214 (1965)]. […] The compound No. corresponds to the compound number shown in Examples.

Another assay concerns the target Plasmin (Homo sapiens, UniProt P00747). Description: anti-plasmin activity (hydrolysis of TAME). In kind it is biochemical. Conditions: for IC50: TAME hydrolysis, read-out: ID50 Plasmin. As for the experimental part:
as §1

Another assay concerns Kallikrein. As to the kind of experiment: anti-kallikrein activity (hydrolysis of TAME). The format is biochemical. The conditions noted are these: for IC50: TAME hydrolysis, read-out: ID50 Kallikrein; for percentage inhibition Kallikrein: at 1×10^-5 M, figure in parentheses. How it is done:
as §1

A further assay concerns the target Thrombin (Homo sapiens, UniProt P00734). Description: biochemical. The conditions noted are these: for IC50: read-out: ID50 Thrombin.
A further assay has as its target T2, C1r (Homo sapiens, UniProt P00736).
T2 sequence (P00736 464-705 limits assumed): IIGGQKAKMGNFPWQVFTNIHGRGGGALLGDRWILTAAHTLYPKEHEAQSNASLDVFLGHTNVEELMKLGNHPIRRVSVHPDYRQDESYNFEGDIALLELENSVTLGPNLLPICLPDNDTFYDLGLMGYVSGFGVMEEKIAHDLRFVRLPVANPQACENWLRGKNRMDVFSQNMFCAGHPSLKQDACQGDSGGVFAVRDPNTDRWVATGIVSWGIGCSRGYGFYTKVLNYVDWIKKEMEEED
T2 sequence (P00736 18-463 limits assumed): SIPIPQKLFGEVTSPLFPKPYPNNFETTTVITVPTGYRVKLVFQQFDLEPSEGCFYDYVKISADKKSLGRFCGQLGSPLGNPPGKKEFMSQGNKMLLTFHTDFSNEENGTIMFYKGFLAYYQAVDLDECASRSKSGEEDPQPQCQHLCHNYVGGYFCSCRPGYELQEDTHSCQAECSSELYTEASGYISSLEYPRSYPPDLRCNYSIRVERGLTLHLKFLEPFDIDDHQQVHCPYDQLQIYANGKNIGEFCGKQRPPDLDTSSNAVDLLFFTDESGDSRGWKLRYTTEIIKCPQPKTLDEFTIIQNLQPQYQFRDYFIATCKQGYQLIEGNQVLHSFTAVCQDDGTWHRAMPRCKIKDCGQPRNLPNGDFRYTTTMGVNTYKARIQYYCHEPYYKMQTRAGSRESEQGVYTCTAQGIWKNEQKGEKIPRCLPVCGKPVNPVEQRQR
As to the kind of experiment: anti-C1 esterase (C1r) activity (hydrolysis of AAME). In kind it is biochemical. Conditions: for IC50: AAME hydrolysis, read-out: ID50 C1r; for inhibition at 10 µM: at 1×10^-5 M, figure in parentheses, read-out: percent inhibition C1r. As for the experimental part: (§2) The anti-C1 esterase (C1r, C1s) activity was determined according to the method of Okamura et al. [K. Okamura, M. Muramatsu and B. Fujii, Biochem. Biophys. Acta, 295, 252-257 (1973)]. The inhibition of complement mediated hemolysis was determined according to the method of Baker et al. [B. R. Baker and E. H. Erickson, J. Med. Chem., 12, 408-414 (1969)]. The figures in Table 2 have the following meanings:
C1r: Molar concentration of the test compound which inhibits 50% of the ability of C1r to hydrolyse AAME (acetylarginin methyl ester) (ID50).

For a further assay, the target named is T3, C1s (Homo sapiens, UniProt P09871).
T3 sequence (P09871 438-688 limits assumed): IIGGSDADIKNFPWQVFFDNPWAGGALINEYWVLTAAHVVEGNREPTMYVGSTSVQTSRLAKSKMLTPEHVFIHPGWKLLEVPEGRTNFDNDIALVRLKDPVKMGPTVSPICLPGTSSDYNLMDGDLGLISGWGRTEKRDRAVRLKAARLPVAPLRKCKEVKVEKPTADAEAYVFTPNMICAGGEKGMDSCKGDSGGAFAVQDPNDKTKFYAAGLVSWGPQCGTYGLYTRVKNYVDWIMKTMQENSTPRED
T3 sequence (P09871 16-437 limits assumed): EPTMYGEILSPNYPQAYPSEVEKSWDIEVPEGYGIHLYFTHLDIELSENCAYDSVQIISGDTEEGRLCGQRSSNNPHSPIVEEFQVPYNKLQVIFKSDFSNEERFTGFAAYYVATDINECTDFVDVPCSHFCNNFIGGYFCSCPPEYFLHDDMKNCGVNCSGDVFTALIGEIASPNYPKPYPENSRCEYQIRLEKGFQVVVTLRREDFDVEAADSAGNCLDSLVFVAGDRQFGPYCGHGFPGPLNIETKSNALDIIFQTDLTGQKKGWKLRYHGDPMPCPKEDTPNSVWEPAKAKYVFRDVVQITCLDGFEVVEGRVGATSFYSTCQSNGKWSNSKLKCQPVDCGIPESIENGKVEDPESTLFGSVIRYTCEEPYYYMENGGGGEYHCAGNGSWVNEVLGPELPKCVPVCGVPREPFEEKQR
Description: anti-C1 esterase (C1s) activity (hydrolysis of ATEE). The format is biochemical. The conditions noted are these: for IC50: ATEE hydrolysis, read-out: ID50 C1s; for inhibition at 10 µM: at 1×10^-5 M, figure in parentheses, read-out: percent inhibition C1s. How it is done:
as §2
C1s: Molar concentration of the test compound which inhibits 50% of the ability of C1s to hydrolyse ATEE (acetyltyrosin ethyl ester) (ID50).

Assay [1] concerns complement mediated hemolysis. Description: inhibition of complement mediated hemolysis. In kind it is cell-based. How it is done: The complement mediated hemolysis is widely used as a means to determine the titration of complement. The principle of this method is based on the fact that hemolysis is caused by the activation of complement, when the latter is added to a complex (immune complex) of erythrocytes and the antibody thereof. The degree of hemolysis varies in proportion to the amount of complement added. Therefore, when a known amount of complement admixed with a C1 esterase inhibitor is used, the hemolysis must be suppressed in proportion to the inhibitory activity.
as §2
Inhibition of complement mediated hemolysis (%): The inhibitory activity is shown in terms of percent inhibition of the compound at varied concentrations: […]

Where two headings read alike, the source gives them in different places.

Plasmin, sequence (P00747 581-810 limits assumed, species assumed): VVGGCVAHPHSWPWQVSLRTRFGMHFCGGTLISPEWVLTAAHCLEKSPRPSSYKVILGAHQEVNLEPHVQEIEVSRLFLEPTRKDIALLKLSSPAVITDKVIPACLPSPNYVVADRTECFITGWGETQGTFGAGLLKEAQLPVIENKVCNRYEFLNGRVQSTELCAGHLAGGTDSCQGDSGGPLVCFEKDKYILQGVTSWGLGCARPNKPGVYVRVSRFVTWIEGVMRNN
Plasmin, sequence (P00747 97-580 limits assumed, species assumed): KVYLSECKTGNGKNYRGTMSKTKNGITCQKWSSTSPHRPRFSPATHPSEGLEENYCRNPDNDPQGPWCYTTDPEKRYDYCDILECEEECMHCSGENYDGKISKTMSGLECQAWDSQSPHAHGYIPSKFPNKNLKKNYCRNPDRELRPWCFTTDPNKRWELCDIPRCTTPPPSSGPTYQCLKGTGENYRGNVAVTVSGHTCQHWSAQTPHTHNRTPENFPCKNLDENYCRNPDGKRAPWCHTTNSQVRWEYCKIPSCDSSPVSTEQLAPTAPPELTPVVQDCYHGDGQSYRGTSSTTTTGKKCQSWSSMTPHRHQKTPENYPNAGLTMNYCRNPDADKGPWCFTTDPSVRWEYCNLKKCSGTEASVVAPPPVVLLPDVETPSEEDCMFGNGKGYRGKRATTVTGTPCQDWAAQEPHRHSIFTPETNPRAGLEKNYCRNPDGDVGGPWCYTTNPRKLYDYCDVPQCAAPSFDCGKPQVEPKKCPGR

Consider `N=C(N)c1ccc2cc(OC(=O)c3ccc(COCc4ccccc4)o3)ccc2c1` [compound 7], for which the IC50 at Trypsin stood at 500 nM; at Plasmin it was 3000 nM; in the assay on Kallikrein, 2000 nM; at Thrombin (TAME hydrolysis), 400 nM; on C1r it was 300 nM; on C1s, 4000 nM. Further, the “Inhibition of complement mediated hemolysis” value in assay [1] (1 × 10^-4) was found to be 100%; in assay [1] (1 × 10^-5), 98%; in assay [1] (1 × 10^-6), 96%; in assay [1] (1 × 10^-7), 98%.

`CC(=O)OCc1ccc(C(=O)Oc2ccc3cc(C(=N)N)ccc3c2)o1` [compound 9]: the IC50 on Trypsin turned out to be 500 nM; at Plasmin it was 900 nM; in the assay on Kallikrein, 2000 nM; at Thrombin (TAME hydrolysis) it was 300 nM; on C1r it was 300 nM; at C1s, 4000 nM. Besides, the “Inhibition of complement mediated hemolysis” value in assay [1] (1 × 10^-4) came out at 100%; in assay [1] (1 × 10^-5), 100%; in assay [1] (1 × 10^-6) it was 96%; in assay [1] (1 × 10^-7) it was 77%.

For `CSCc1ccc(C(=O)Oc2ccc3cc(C(=N)N)ccc3c2)o1` [compound 11], the IC50 on Trypsin is 200 nM; on Plasmin, 500 nM; in the assay on Kallikrein it was 200 nM; on Thrombin (TAME hydrolysis), 300 nM; at C1r, 200 nM; on C1s, 900 nM. Further, the “Inhibition of complement mediated hemolysis” value in assay [1] (1 × 10^-4) was 100%; in assay [1] (1 × 10^-5), 100%; in assay [1] (1 × 10^-6), 99%; in assay [1] (1 × 10^-7), 88%.

Turning to `N=C(N)c1ccc2cc(OC(=O)C=Cc3ccco3)ccc2c1` [compound 14], the IC50 is 1000 nM at Trypsin; 300 nM at Plasmin; 5000 nM with Kallikrein; 7000 nM on Thrombin (TAME hydrolysis); 3000 nM on C1r; 400 nM on C1s. In addition, the “Inhibition of complement mediated hemolysis” value worked out at 98% in assay [1] (1 × 10^-4), 94% in assay [1] (1 × 10^-5), 72% in assay [1] (1 × 10^-6) and 20% in assay [1] (1 × 10^-7).

In the case of `N=C(N)c1ccc2cc(OC(=O)c3cc4ccccc4o3)ccc2c1` [compound 16], the IC50 worked out at 2000 nM on Trypsin, 3000 nM on Plasmin, 7000 nM on Thrombin (TAME hydrolysis) and 4000 nM on C1r. The “percentage inhibition Kallikrein” value in the assay with Kallikrein is listed as “NE (the percentage inhibition is less than 10%)”. Besides, at C1s, the inhibition at 10 µM was < 10%. Besides, the “Inhibition of complement mediated hemolysis” value is recorded as 100% in assay [1] (1 × 10^-4), 99% in assay [1] (1 × 10^-5), 99% in assay [1] (1 × 10^-6) and 98% in assay [1] (1 × 10^-7).

For `COc1ccc2oc(C(=O)Oc3ccc4cc(C(=N)N)ccc4c3)cc2c1` [compound 17], the IC50 on Trypsin was 3000 nM; at Plasmin it was 3000 nM; on Thrombin (TAME hydrolysis), 2000 nM; on C1r, 4000 nM; on C1s it was 6000 nM. In the assay on Kallikrein, the “percentage inhibition Kallikrein” value is reported as “NE (the percentage inhibition is less than 10%)”. Further, the “Inhibition of complement mediated hemolysis” value in assay [1] (1 × 10^-4) was determined as 100%; in assay [1] (1 × 10^-5) it was 100%; in assay [1] (1 × 10^-6), 95%; in assay [1] (1 × 10^-7), 90%.

For `N=C(N)c1ccc2cc(OC(=O)c3cccs3)ccc2c1` [compound 22], the IC50 was determined as 200 nM at Trypsin; 300 nM at Plasmin; 2000 nM in the assay on Kallikrein; 200 nM at Thrombin (TAME hydrolysis); 70 nM on C1r; 300 nM on C1s. In addition, the “Inhibition of complement mediated hemolysis” value in assay [1] (1 × 10^-4) is 100%; in assay [1] (1 × 10^-5), 96%; in assay [1] (1 × 10^-6) it was 58%; in assay [1] (1 × 10^-7), 34%.

As for `Cc1ccc(C(=O)Oc2ccc3cc(C(=N)N)ccc3c2)s1` [compound 23], the IC50 at Trypsin is < 10 nM; at Plasmin, 300 nM; in the assay on Kallikrein, 2000 nM; at Thrombin, 3000 nM; at C1r, 700 nM; at C1s it was 400 nM. Besides, the “Inhibition of complement mediated hemolysis” value in assay [1] (1 × 10^-4) was determined as 100%; in assay [1] (1 × 10^-5), 99%; in assay [1] (1 × 10^-6) it was 95%; in assay [1] (1 × 10^-7), 91%.

In the case of `N=C(N)c1ccc2cc(OC(=O)c3ccc[nH]3)ccc2c1` [compound 28], the IC50 at Trypsin was 6000 nM; at C1s, 300 nM. For the same compound, the inhibition at 10 µM on Plasmin (at 1×10^-5 M, figure in parentheses, read-out: percentage inhibition Plasmin) was < 10%; at Thrombin (at 1×10^-5 M, figure in parentheses, read-out: percentage inhibition Thrombin) it was < 10%; at C1r it was 31%. Besides, the “percentage inhibition Kallikrein” value in the assay with Kallikrein is reported as “NE (the percentage inhibition is less than 10%)”. Besides, the “Inhibition of complement mediated hemolysis” value in assay [1] (1 × 10^-4) was 88%; in assay [1] (1 × 10^-5), 55%; in assay [1] (1 × 10^-6) it was 28%; in assay [1] (1 × 10^-7) it was “NE (the percentage inhibition is less than 10%)”.

Consider `N=C(N)c1ccc2cc(OC(=O)c3ccccn3)ccc2c1` [compound 45], for which the IC50 was 5000 nM at Trypsin, 7000 nM on Plasmin and 4000 nM on Thrombin (TAME hydrolysis). Further, the “percentage inhibition Kallikrein” value in the assay with Kallikrein is reported as “NE (the percentage inhibition is less than 10%)”. Moreover, the figures for the inhibition at 10 µM at C1r and at C1s were 18% and 20%, respectively. For the same compound, the “Inhibition of complement mediated hemolysis” value is 100% in assay [1] (1 × 10^-4), 98% in assay [1] (1 × 10^-5), 75% in assay [1] (1 × 10^-6) and 46% in assay [1] (1 × 10^-7).

(Values after patent US4634783A, “Novel amidine compound” (Torii & Co. Ltd., priority 1983, dated 1987).)
